These results are taken from US8597904B2, “Pharmaceutical compositions for the treatment of conditions responsive to proteasome inhibition” (priority 2007, dated 2013).

In assay [1] the target is T1, human erythrocyte 20S proteasomes, caspase-like activity (Homo sapiens, UniProt P28072).
T1 construct: which contains human erythrocyte 20S proteasomes; purchased BIOMOL International AK-740; host or cells: human erythrocytes
Description: 20S Proteasome Assay Kit, Z-LLE-AMC substrate. In kind it is biochemical. As for the experimental part:
The eukaryotic 20S proteasome contains three catalytic subunits (β1, β2, and (β5) conferring caspase-like, trypsin-like and chymotrypsin-like proteolytic activities, respectively (Borissenko and Groll. 2007. Chem. Rev. 107:687-717, which is incorporated herein by reference in its entirety). Syringolin A was tested as a proteasome inhibitor using the 20S Proteasome Assay Kit for Drug Discovery AK-740 (BIOMOL® International, Plymouth Meeting, PA, USA), which contains human erythrocyte 20S proteasomes, in a 96-well microtiter plate. The fluorogenic substrates Suc-LLVY-AMC, Boc-LRR-AMC, and Z-LLE-AMC (BIOMOL® International) were used to monitor chymotrypsin-like, trypsin-like, and caspase-like activities, respectively. […] The release of free AMC (7-amino-4-methylcoumarin) at 37° C. was monitored with an MWGt Sirius HT fluorescence microplate reader (BIO-TEK® Instruments) equipped with a 360 nm excitation and a 460 nm emission filter. Proteolytic activities were measured as the increase in relative fluorescence units (RFU) over time (FIG. 7A-C). […] The initial velocities (vi) were determined from the time derivative of these curves and plotted versus the corresponding inhibitor concentration ([I]). […] The rate of covalent inhibition (kassociation), which equals kobs/[I] was calculated over the range of inhibitor concentrations given in parentheses in FIG. 7D. […]

Assay [2] deals with ubiquitinated proteins. Description: immunoblot of total ubiquitinated proteins in SK-N-SH cells. In kind it is cell-based, human. The conditions noted are these: for increase of ubiquitinated proteins: 24 hours of treatment. As for the experimental part:
As inhibition of the proteasome is expected to result in increased levels of ubiquitinated proteins (Meng, et al. 1999. Proc. Natl. Acad. Sci. U.S.A. 96:10403-10408, which is incorporated herein by reference in its entirety), the effect of syringolin A on total ubiquitinated protein accumulation was analyzed by immunoblot analysis. To do so, SK-N-SH cells were seeded in 6-well cell culture plates at a concentration of 3.8×10^5 cells per ml (1.98 ml per well). After 24 hours, 20 μl of syringolin A (final concentration 25 μM) or cell culture medium (control, C) was added. For time-course experiments, cell treatments were staggered in order to process all samples at the same time after 24 hours. Cell lysates were prepared as previously reported (Wallick, et al. 2005. Oncogene 24:5606-5618, which is incorporated herein by reference in its entirety). Sodium dodecyl sulfate-polyacrylamide gel electrophoresis (SDS-PAGE), electro transfer to PVDF Immobilon-P membranes (Millipore) and antibody incubations were performed according to standard procedures. The primary antibodies used were rabbit whole serum ubiquitin (1:150) (U5379; Sigma), mouse monoclonal tumor suppressor protein p53 (1:250) (se-126; Santa Cruz Biotechnology), and rabbit monoclonal α-tubulin (1:1,500) (11H10; Cell Signaling Technology). Horse radish peroxidase (HRP)-conjugated anti-mouse or anti-rabbit antibodies (1:5,000) were used as secondary antibodies. Membranes were developed using the ECL Plus kit following the manufacturer's protocol (Amersham Biosciences) and exposed to Blue Lite Autorad Film (ISC BioExpress). Membranes were stripped with ECL stripping buffer (62.5 mM Tris-HCL, pH 6.7, 2% SDS, 100 mM β-mercaptoethanol) for 20 min at 55° C. and sequentially re-probed with the next antibody.
To further examine the inhibitory effect, whole cell lysates of GlbA-treated or untreated control cells were analyzed by Western blot and ubiquitinated proteins detected at endogenous levels.

The test system of assay [3] is TH-MYCN transgenic mouse. Description: chemoprevention in TH-MYCN mouse model of human neuroblastoma. The conditions noted are these: homozygous mice, treatment from week 4 or 5, vs untreated mice. In kind it is in vivo. The text has this: The TH-MYCN transgenic mouse is a well-established neuroblastoma mouse model (Hansfored, et al. 2004. PNAS 101(34):12664-12669; Weiss, et al. 2007. Cancer Res 67(19):9435-9442; Weiss, et al. 2000. Cancer Res 6″2483-2487, each of which is incorporated herein by reference in its entirety). The tumors are caused by targeted expression of MYCN to the neural crest under the control of the rat tyrosine hydroxylase promoter, where the mice develop a tumor phenotype that closely resembles the human disease. The tumors in this strain of mouse generally develop in the abdominal and thoracic areas. TH-MYCN breeder pairs are supplied as hemizygote (129×1/SvJ-Tg(TH-MYCN)41Waw) and a wild type mate (129×1/SvJ).
Treatment regimen is similar to that described in Example 16. Test compounds are administered to homozygous mice at a dose that is developed based upon the results of the initial dose and toxicity study (Example 15). Two to four doses per compound are administered by i.p. and/or i.v. methods into homozygous mice at week 4 or 5 (in advance of tumor development, which occurs closer to week 7). Vehicle is delivered as a control. Further doses are administered every 72 hours thereafter for 3 to 6 weeks. Between eight to twelve mice are tested in the study for administration of each compound. […] At the conclusion of the study, the mice are sacrificed and tumor size and number of tumors are assessed.

With `CCCCCCC/C=C/C=C/C(=O)N[C@H](C(=O)N[C@H]1C[C@@H](O)CCNC(=O)/C=C/[C@H](C)NC1=O)[C@@H](C)O` [glidobactin A], the “inhibition of caspase-like activity” value in assay [1] (concentrations tested up to 20 μM) was “not inhibited”. The “increase of ubiquitinated proteins” value in assay [2] turned out to be 3 fold. Besides, the “lower concentration of GlbA inducing effects comparable to SylA” value in assay [2] (ubiquitinated proteins) is given as 100 fold. For the same compound, in assay [3], the tumor formation entry was “fewer or no tumors”.
`CC(C)[C@H](NC(=O)N[C@H](C(=O)N[C@H]1/C=C/CCNC(=O)/C=C/[C@H](C(C)C)NC1=O)C(C)C)C(=O)O` [syringolin A]: in assay [1] (37° C., 100 μM Z-LLE-AMC), the “inhibition of caspase-like activity” value is “inhibited”. Further, in assay [2] (25 μM, time-course), the “accumulation of ubiquitinated proteins” value was “time-dependent accumulation of ubiquitinated proteins”. Besides, the “increase of ubiquitinated proteins” value in assay [2] was determined as 3 fold. The tumor formation entry in assay [3] is on record as “fewer or no tumors”.
